Literature values in patent publication US7115628B2, “Bridged piperidine derivatives as melanocortin receptor agonists” (Merck & Co., Inc., priority 2001, dated 2006).

Legend:
[1] = tested on: patients with erectile dysfunction; details: for duration of effect / onset of action: after an oral dose; for share of men/patients in whom effective (adequate response): oral
[2] = tested on: males with psychogenic erectile dysfunction
[3] = subcutaneous injection formulation

Molecule	duration of effect [1]	onset of action [1] [min]	share of men/patients in whom effective (adequate response) [1]	absorption into the systemic circulation ([2]; in vivo, po)	response rate ([2]; injected intramuscularly or subcutaneously) [%]	duration of action [2, 3]	time to onset of erection [2, 3] [min]
CCCc1nn(C)c2c(=O)[nH]c(-c3cc(S(=O)(=O)N4CCN(C)CC4)ccc3OCC)nc12 [Sildenafil, sildenafil]	about 4 hours	30 to 60	about 70%				
Cc1ccc(N(CC2=NCCN2)c2cccc(O)c2)cc1 [phentolamine]	2 h	5 to 30	35–40%				
Ac-Nle-c[Asp-His-DPhe-Arg-Trp-Lys]-NH2 [MT-II]				not absorbed into the systemic circulation	75	approximately 2.5 hours	10 to 20
